tested on: not given; test: not given; settings: not given

Row | melting point [°C] | SMILES
1 | 184.5 to 185.5 | CC(Cn1cc(-c2c[nH]c3cc(F)ccc23)cn1)C(N)=O (single isomer, unassigned) [Compound 35, 3-(4-(6-fluoro-1H-indol-3-yl)-1H-pyrazol-1-yl)-2-methylpropanamide]
2 | 173.3 to 175 | NC(=O)CCn1cc(-c2c[nH]c3cc(F)ccc23)cn1 [Compound 7, 3-(4-(6-fluoro-1H-indol-3-yl)-1H-pyrazol-1-yl)propanamide]
3 | 179.5 to 180.8 | CC(=O)NCCn1cc(-c2c[nH]c3cc(F)ccc23)cn1 [Compound 21, N-(2-(4-(6-fluoro-1H-indol-3-yl)-1H-pyrazol-1-yl)ethyl)acetamide]
4 | 94.2 to 95.2 | CNCCn1cc(-c2c[nH]c3cc(F)ccc23)cn1 [Compound 24, 2-(4-(6-fluoro-1H-indol-3-yl)-1H-pyrazol-1-yl)-N-methylethanamine]
5 | 153.3 to 155.1 | CS(=O)(=O)CCn1cc(-c2c[nH]c3cc(F)ccc23)cn1 [Compound 31, 6-fluoro-3-(1-(2-(methylsulfonyl)ethyl)-1H-pyrazol-4-yl)-1H-indole]
6 | 170.6 to 171.9 | CS(=O)(=O)CCn1cc(-c2c[nH]c3cc(F)c(F)cc23)cn1 [Compound 32, 5,6-difluoro-3-(1-(2-(methylsulfonyl)ethyl)-1H-pyrazol-4-yl)-1H-indole]
7 | 167.1 to 168.9 | Fc1cc2[nH]cc(-c3cnn(CC4CCNCC4)c3)c2cc1F [Compound 44, 5,6-difluoro-3-(1-(piperidin-4-ylmethyl)-1H-pyrazol-4-yl)-1H-indole]
8 | 138.9 to 139.6 | Fc1ccc2c(-c3cnn(CC4CCOCC4)c3)c[nH]c2c1 [Compound 58, 6-fluoro-3-(1-((tetrahydro-2H-pyran-4-yl)methyl)-1H-pyrazol-4-yl)-1H-indole]
9 | 193.1 to 194.1 | O=S1(=O)CCC(Cn2cc(-c3c[nH]c4cc(F)ccc34)cn2)CC1 [Compound 60, 4-((4-(6-fluoro-1H-indol-3-yl)-1H-pyrazol-1-yl)methyl)tetrahydro-2H-thiopyran 1,1-dioxide]
10 | 240.1 to 241.8 | Fc1ccc2c(-c3cnn(C4CCNCC4)c3)c[nH]c2c1 [Compound 78, 6-fluoro-3-(1-(piperidin-4-yl)-1H-pyrazol-4-yl)-1H-indole]
11 | 226 to 228 | O=C(O)CCC(=O)N1CCC(n2cc(-c3c[nH]c4cc(F)ccc34)cn2)CC1 [Compound 80, 4-(4-(4-(6-fluoro-1H-indol-3-yl)-1H-pyrazol-1-yl)piperidin-1-yl)-4-oxobutanoic acid]
12 | 193.7 to 196.1 | CN(C)CC(=O)N1CCC(n2cc(-c3c[nH]c4cc(F)ccc34)cn2)CC1 [Compound 83, 2-(dimethylamino)-1-(4-(4-(6-fluoro-1H-indol-3-yl)-1H-pyrazol-1-yl)piperidin-1-yl)ethanone]
13 | 99.9 to 102.1 | O=C(CO)N1CCC(n2cc(-c3c[nH]c4cc(F)ccc34)cn2)CC1 [Compound 84, 1-(4-(4-(6-fluoro-1H-indol-3-yl)-1H-pyrazol-1-yl)piperidin-1-yl)-2-hydroxyethanone]
14 | 210.2 to 211 | CC(C)C(=O)N1CCC(n2cc(-c3c[nH]c4cc(F)ccc34)cn2)CC1 [Compound 86, 1-(4-(4-(6-fluoro-1H-indol-3-yl)-1H-pyrazol-1-yl)piperidin-1-yl)-2-methylpropan-1-one]
15 | 231 to 232 | CC(C)(C)C(=O)N1CCC(n2cc(-c3c[nH]c4cc(F)ccc34)cn2)CC1 [Compound 87, 1-(4-(4-(6-fluoro-1H-indol-3-yl)-1H-pyrazol-1-yl)piperidin-1-yl)-2,2-dimethylpropan-1-one]
16 | 190.7 to 191.4 | O=C(C1CC1)N1CCC(n2cc(-c3c[nH]c4cc(F)ccc34)cn2)CC1 [Compound 88, cyclopropyl(4-(4-(6-fluoro-1H-indol-3-yl)-1H-pyrazol-1-yl)piperidin-1-yl)methanone]
17 | 223 to 224.6 | CN(C)C(=O)N1CCC(n2cc(-c3c[nH]c4cc(F)ccc34)cn2)CC1 [Compound 90, 4-(4-(6-fluoro-1H-indol-3-yl)-1H-pyrazol-1-yl)-N,N-dimethylpiperidine-1-carboxamide]
18 | 222.8 to 223.7 | CN1CCC(n2cc(-c3c[nH]c4cc(F)ccc34)cn2)CC1 [Compound 91, 6-fluoro-3-(1-(1-methylpiperidin-4-yl)-1H-pyrazol-4-yl)-1H-indole]

target: T1, human TDO2 (Homo sapiens, UniProt P48775); test: Assay for TDO2 enzymatic activity determination; format: biochemical; set-up: made in house; settings: human recombinant TDO2, L-Trp 1 mM, room temperature, one hour, kynurenine absorbance at 480 nm
T1 sequence (P48775 whole entry): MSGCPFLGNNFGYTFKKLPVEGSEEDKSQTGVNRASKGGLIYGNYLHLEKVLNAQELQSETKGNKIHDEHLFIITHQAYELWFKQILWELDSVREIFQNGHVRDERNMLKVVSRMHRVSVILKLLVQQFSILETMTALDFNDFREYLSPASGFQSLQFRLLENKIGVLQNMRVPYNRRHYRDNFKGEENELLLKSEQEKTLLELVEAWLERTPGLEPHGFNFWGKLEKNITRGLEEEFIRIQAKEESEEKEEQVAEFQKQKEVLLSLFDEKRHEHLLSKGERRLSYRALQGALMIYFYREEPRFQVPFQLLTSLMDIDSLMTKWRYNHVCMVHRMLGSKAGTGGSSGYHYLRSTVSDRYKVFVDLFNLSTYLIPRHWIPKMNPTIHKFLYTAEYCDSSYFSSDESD
Method: To measure the TDO2 activity, the reaction mixture contained (final concentrations) potassium phosphate buffer (50 mM, pH 7.5), ascorbic acid (0.25 M), methylene blue (0.125 μM), catalase (40 units/mL, from bovine liver, Sigma), and human recombinant TDO2 enzyme (prepared as described in Dolusic et al. J. Med. Chem.; 2011, 54, 5320-5334; 0.9 μg) without or with the compounds of the present invention at the indicated concentrations (total volume 112.5 μL). The reaction was initiated by the addition of 37.5 μL of L-Trp (final concentration 1 mM) at room temperature. The reaction was conducted at room temperature during one hour and stopped by the addition of 30 μL of 30% (w/v) trichloroacetic acid.
To convert N-formylkynurenine into kynurenine, the reaction mixture was incubated at 65° C. for 30 min. Then 150 μL of the reaction mixture was mixed with 120 μL of 2.5% (w/v) 4-(dimethylamino)-benzaldehyde in acetic acid and incubated for 5 min at room temperature. Kynurenine concentrations were determined by measuring the absorbance at 480 nm. A standard curve was made with pure kynurenine. The TDO activity was measured as described above using ten serial concentrations of the compounds of the present invention. Data were fitted using the Prism software (GraphPad Software, Inc.).

Row | IC50 [µM] | SMILES
19 | 1 to 10 | NC(=O)CCn1cc(-c2c[nH]c3cc(F)c(F)cc23)cn1 [Compound 8, 3-(4-(5,6-difluoro-1H-indol-3-yl)-1H-pyrazol-1-yl)propanamide]
20 | 1 to 10 | Cc1nn(CCC(N)=O)c(C)c1-c1c[nH]c2cc(F)ccc12 [Compound 9, 3-(4-(6-fluoro-1H-indol-3-yl)-3,5-dimethyl-1H-pyrazol-1-yl)propanamide]
21 | 10 to 100 | Cc1nn(CCS(C)(=O)=O)c(C)c1-c1c[nH]c2cc(F)ccc12 [Compound 33, 3-(3,5-dimethyl-1-(2-(methylsulfonyl)ethyl)-1H-pyrazol-4-yl)-6-fluoro-1H-indole]
22 | 1 to 10 | NC(=O)C(O)Cn1cc(-c2c[nH]c3cc(F)ccc23)cn1 (centres unmarked) [Compound 37, 3-(4-(6-fluoro-1H-indol-3-yl)-1H-pyrazol-1-yl)-2-hydroxypropanamide]
23 | 10 to 100 | Cc1nn(CC2CCNCC2)c(C)c1-c1c[nH]c2cc(F)ccc12 [Compound 55, 3-(3,5-dimethyl-1-(piperidin-4-ylmethyl)-1H-pyrazol-4-yl)-6-fluoro-1H-indole]
24 | < 1 | Cc1nn(CC2CCNCC2)cc1-c1c[nH]c2cc(F)ccc12 [Compound 56, 6-fluoro-3-(3-methyl-1-(piperidin-4-ylmethyl)-1H-pyrazol-4-yl)-1H-indole]
25 | 1 to 10 | Cc1c(-c2c[nH]c3cc(F)ccc23)cnn1CC1CCNCC1 [Compound 57, 6-fluoro-3-(5-methyl-1-(piperidin-4-ylmethyl)-1H-pyrazol-4-yl)-1H-indole]
26 | 1 to 10 | O=S(=O)(N1CCC(n2cc(-c3c[nH]c4cc(F)ccc34)cn2)CC1)C(F)(F)F [Compound 92, 6-fluoro-3-(1-(1-((trifluoromethyl)sulfonyl)piperidin-4-yl)-1H-pyrazol-4-yl)-1H-indole]
27 | 10 to 100 | CC(=O)N1CCC(n2cc(-c3c[nH]c4cc(F)ccc34)c(C)n2)CC1 [Compound 94, 1-(4-(4-(6-fluoro-1H-indol-3-yl)-3-methyl-1H-pyrazol-1-yl)piperidin-1-yl)ethanone]
28 | 1 to 10 | CC(=O)N1CCC(n2ncc(-c3c[nH]c4cc(F)ccc34)c2C)CC1 [Compound 95, 1-(4-(4-(6-fluoro-1H-indol-3-yl)-5-methyl-1H-pyrazol-1-yl)piperidin-1-yl)ethanone]
29 | 1 to 10 | COCCS(=O)(=O)N1CCC(n2cc(-c3c[nH]c4cc(F)ccc34)cn2)CC1 [Compound 96, 6-fluoro-3-(1-(1-((2-methoxyethyl)sulfonyl)piperidin-4-yl)-1H-pyrazol-4-yl)-1H-indole]
30 | 1 to 10 | O=S(=O)(C1CC1)N1CCC(n2cc(-c3c[nH]c4cc(F)ccc34)cn2)CC1 [Compound 97, 3-(1-(1-(cyclopropylsulfonyl)piperidin-4-yl)-1H-pyrazol-4-yl)-6-fluoro-1H-indole]
31 | 1 to 10 | CCS(=O)(=O)N1CCC(n2cc(-c3c[nH]c4cc(F)ccc34)cn2)CC1 [Compound 98, 3-(1-(1-(ethylsulfonyl)piperidin-4-yl)-1H-pyrazol-4-yl)-6-fluoro-1H-indole]
32 | 1 to 10 | CC(C)S(=O)(=O)N1CCC(n2cc(-c3c[nH]c4cc(F)ccc34)cn2)CC1 [Compound 99, 6-fluoro-3-(1-(1-(isopropylsulfonyl)piperidin-4-yl)-1H-pyrazol-4-yl)-1H-indole]
33 | 1 to 10 | C=CC(=O)N1CCC(n2cc(-c3c[nH]c4cc(F)ccc34)cn2)CC1 [Compound 102, 1-(4-(4-(6-fluoro-1H-indol-3-yl)-1H-pyrazol-1-yl)piperidin-1-yl)prop-2-en-1-one]

target: T1, human TDO2; test: Cellular assay for TDO2 activity, hTDO2-overexpressing P815 cells; format: cell-based; set-up: expressed in transfected cells; host or cells: murine mastocytoma P815 cells; settings: murine mastocytoma P815 cells overexpressing hTDO2, overnight incubation, kynurenine absorbance at 480 nm
Method: The assay was performed in 96-well flat bottom plates seeded with murine mastocytoma P815 cells overexpressing hTDO2 (prepared as described in Pilotte et al., PNAS, 2012, 109(7), 2497-2502), at a concentration of 5×10^4 cells/well in a final volume of 200 μL. To determine TDO or IDO activity, the cells were incubated overnight at 37° C. at 5% CO2 in IMDM (Invitrogen) supplemented with 2% FBS and 2% penicillin/streptomycin in the presence of the compounds of the present invention, at different concentrations.
The plates were then centrifuged 5 min at 1000 rpm, and 100 μL of the supernatant were collected in a conical plate, 30 uL of TCA 30% were added and a further centrifugated at 3000×g for 10 minutes. 100 μL of the supernatant were collected in a flat bottomed plate and 100 μL of 2% (w/v) 4-(dimethylamino)-benzaldehyde in acetic acid and incubated for 5 min at room temperature. Kynurenine concentrations were determined by measuring the absorbance at 480 nm. A standard curve was made with pure kynurenine. The TDO activity was measured as described above using ten serial concentrations of the compounds of the present invention. Data were fitted using the Prism software (GraphPad Software, Inc.).

Row | IC50 [µM] | SMILES
34 | < 1 | NC(=O)C(O)Cn1cc(-c2c[nH]c3cc(F)ccc23)cn1 (centres unmarked) [Compound 37, 3-(4-(6-fluoro-1H-indol-3-yl)-1H-pyrazol-1-yl)-2-hydroxypropanamide]
35 | 1 to 10 | NC(=O)[C@H]1CC[C@H](n2cc(-c3c[nH]c4cc(F)ccc34)cn2)CC1 [Compound 67, (1R,4R)-4-(4-(6-fluoro-1H-indol-3-yl)-1H-pyrazol-1-yl)cyclohexanecarboxamide]

Source: patent US20160263087A1, “NOVEL 4-(INDOL-3-YL)-PYRAZOLE DERIVATIVES, PHARMACEUTICAL COMPOSITIONS AND METHODS FOR USE” (ITEOS THERAPEUTICS, priority 2013, published 2016)
